Structures can show the parent of a compound that is named as a salt. Where two headings read alike, the source gives them in different places.
Tests used:
[1] = molecular target: recombinant human arginase 1 (Homo sapiens, UniProt P05089); assay: Arginase inhibitory activity test, enzymatic assay based on urea measurement (Arg 1);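 further: enzyme incubated with L-arginine substrate and compound at 37 °C for 120 min, urea product detected colorimetrically by absorbance at 450 nm, background from wells lacking enzyme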
Protocol: (§1) An enzymatic assay with recombinant human arginases 1 or 2 was used to measure inhibitory activity of the compounds. The assay is based on urea measurement, which is a product of L-arginine enzymatic degradation.
(§2) Briefly, arginase and the substrate solution containing L-arginine were incubated in the absence or presence of varying concentrations of compounds at 37° C. for 120 min. For the background correction, only the substrate solution was added without arginase. The urea detection reagent from QuantiChrome™ Urea assay kit (BioAssay Systems, CA) was added to develop the color product. After 60 min at room temperature, the absorbance was measured at 450 nm with CLARIOstar (BMG LABTECH). Urea was used as the standard.

[2] = molecular target: T1, recombinant human arginase 1 (Homo sapiens, UniProt P05089); assay: as above; remark: listed apart in the source;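 further: enzyme incubated with L-arginine substrate and compound at 37 °C for 120 min, urea product detected colorimetrically by absorbance at 450 nm, background from wells lacking enzyme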
T1 sequence (P05089 1-322): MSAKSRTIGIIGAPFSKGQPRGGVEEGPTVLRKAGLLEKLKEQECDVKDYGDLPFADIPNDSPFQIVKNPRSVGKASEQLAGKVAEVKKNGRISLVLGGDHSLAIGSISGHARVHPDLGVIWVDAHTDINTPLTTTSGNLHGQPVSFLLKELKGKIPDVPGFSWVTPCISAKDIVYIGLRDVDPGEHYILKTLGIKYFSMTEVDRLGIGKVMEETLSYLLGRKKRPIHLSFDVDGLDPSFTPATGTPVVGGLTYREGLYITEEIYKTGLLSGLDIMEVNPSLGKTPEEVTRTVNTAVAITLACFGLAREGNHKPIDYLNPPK
Protocol: as §1, §2

[3] = molecular target: T2, recombinant human arginase 2 (Homo sapiens, UniProt P78540); assay: Arginase inhibitory activity test, enzymatic assay based on urea measurement (Arg 2); type: biochemical; settings: 37° C. for 120 min, urea detection, read-out: Arg 2 enzymatic potency
T2 sequence (P78540 23-354): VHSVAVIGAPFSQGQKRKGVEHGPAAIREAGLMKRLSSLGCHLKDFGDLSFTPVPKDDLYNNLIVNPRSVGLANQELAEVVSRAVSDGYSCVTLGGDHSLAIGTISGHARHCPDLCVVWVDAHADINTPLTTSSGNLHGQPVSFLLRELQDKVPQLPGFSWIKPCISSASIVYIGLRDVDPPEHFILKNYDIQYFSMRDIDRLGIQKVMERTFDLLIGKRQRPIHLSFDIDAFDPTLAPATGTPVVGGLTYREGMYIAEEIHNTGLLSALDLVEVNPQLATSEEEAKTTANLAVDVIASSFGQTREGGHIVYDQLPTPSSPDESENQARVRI
Source text: Urea was used as the standard.

CN(C[C@H](N)C(F)F)S(=O)(=O)N1C[C@H](CCCB(O)O)[C@](N)(C(=O)O)C1 (racemic)
IC50 [1]: 100 to 1000 nM

N[C@@H](CNS(=O)(=O)N1C[C@H](CCCB(O)O)[C@](N)(C(=O)O)C1)C(F)F (racemic)
IC50 [1]: 100 to 1000 nM

N[C@@]1(C(=O)O)CN(S(N)(=O)=O)C[C@@H]1CCCB(O)O (racemic) [Example 1, (rac)trans-3-amino-4-(3-boronopropyl)-1-sulfamoylpyrrolidine-3-carboxylic acid, (1:1) 2,2,2-trifluoroacetic acid salt]
IC50 [2]: < 100 nM | IC50 [3]: 100 to 1000 nM

Nc1c(N2C[C@H](CCCB(O)O)[C@](N)(C(=O)O)C2)c(=O)c1=O (racemic) [Example 3, (rac)trans-3-amino-1-(2-amino-3,4-dioxocyclobut-1-en-1-yl)-4-(3-boronopropyl)pyrrolidine-3-carboxylic acid, (1:1) 2,2,2-trifluoroacetic acid salt]
IC50 [2]: 100 to 1000 nM | IC50 [3]: 100 to 1000 nM

N[C@@]1(C(=O)O)CN(S(=O)(=O)Nc2ccccn2)C[C@@H]1CCCB(O)O (racemic) [Example 4, (rac)trans-3-amino-4-(3-boronopropyl)-1-(N-(pyridin-2-yl)sulfamoyl)pyrrolidine-3-carboxylic acid compound with 2,2,2-trifluoroacetic acid (1:2)]
IC50 [2]: 100 to 1000 nM | IC50 [3]: 100 to 1000 nM

NCCNS(=O)(=O)N1C[C@H](CCCB(O)O)[C@](N)(C(=O)O)C1 (racemic) [Example 5, (rac)trans-3-amino-1-(N-(2-aminoethyl)sulfamoyl)-4-(3-boronopropyl)pyrrolidine-3-carboxylic acid compound with 2,2,2-trifluoroacetic acid (1:2)]
IC50 [2]: < 100 nM | IC50 [3]: < 100 nM

N[C@@]1(C(=O)O)CN(S(=O)(=O)Nc2cc[nH]n2)C[C@@H]1CCCB(O)O (racemic) [Example 6, (rac)trans-1-(N-(1H-pyrazol-3-yl)sulfamoyl)-3-amino-4-(3-boronopropyl)pyrrolidine-3-carboxylic acid, (1:2) 2,2,2-trifluoroacetic acid salt]
IC50 [2]: 100 to 1000 nM | IC50 [3]: 100 to 1000 nM

CC(C)(N)CNS(=O)(=O)N1C[C@H](CCCB(O)O)[C@](N)(C(=O)O)C1 (racemic) [Example 25, (rac)-trans-3-amino-1-(N-(2-amino-2-methylpropyl)sulfamoyl)-4-(3-boronopropyl)pyrrolidine-3-carboxylic acid, (1:2) 2,2,2-trifluoroacetic acid salt]
IC50 [2]: < 100 nM | IC50 [3]: < 100 nM

CC(C)(CN)NS(=O)(=O)N1C[C@H](CCCB(O)O)[C@](N)(C(=O)O)C1 (racemic) [Example 26, (rac)-trans-3-amino-1-(N-(1-amino-2-methylpropan-2-yl)sulfamoyl)-4-(3-boronopropyl)pyrrolidine-3-carboxylic acid, (1:2) 2,2,2-trifluoroacetic acid salt]
IC50 [2]: < 100 nM | IC50 [3]: < 100 nM

N[C@@]1(C(=O)O)CN(S(=O)(=O)N2CCNCC2)C[C@@H]1CCCB(O)O (racemic) [Example 30, (rac)-trans-3-amino-4-(3-boronopropyl)-1-(piperazin-1-ylsulfonyl)pyrrolidine-3-carboxylic acid, 2,2,2-trifluoroacetic acid salt (1:2)]
IC50 [2]: < 100 nM | IC50 [3]: 100 to 1000 nM

NCC1(NS(=O)(=O)N2C[C@H](CCCB(O)O)[C@](N)(C(=O)O)C2)COC1 (racemic) [Example 31]
IC50 [2]: < 100 nM | IC50 [3]: 100 to 1000 nM

N=C(N)N1C[C@H](CCCB(O)O)[C@](N)(C(=O)O)C1 (racemic) [Example 37, rac-(trans)-3-amino-4-(3-boronopropyl)-1-carbamimidoylpyrrolidine-3-carboxylic acid, 2,2,2-trifluoroacetic acid salt (1:2)]
IC50 [2]: 100 to 1000 nM | IC50 [3]: 100 to 1000 nM

N[C@@]1(C(=O)O)CN(S(=O)(=O)N(CC2CC2)[C@H]2CCNC2)C[C@@H]1CCCB(O)O [Example 71, (3R,4S)-3-amino-4-(3-boronopropyl)-1-(N-(cyclopropylmethyl)-N-((S)-pyrrolidin-3-yl)sulfamoyl)pyrrolidine-3-carboxylic acid, 2,2,2-trifluoroacetic acid salt (1:2)]
IC50 [2]: < 100 nM

N[C@@]1(C(=O)O)CN(S(=O)(=O)N(CC2CC2)[C@H]2CCCNC2)C[C@@H]1CCCB(O)O [Example 72, (3R,4S)-3-amino-4-(3-boronopropyl)-1-(N-(cyclopropylmethyl)-N-((S)-piperidin-3-yl)sulfamoyl)pyrrolidine-3-carboxylic acid, 2,2,2-trifluoroacetic acid salt (1:2)]
IC50 [2]: < 100 nM

N[C@@]1(C(=O)O)CN(S(=O)(=O)N(CC2CC2)[C@@H]2CCCNC2)C[C@@H]1CCCB(O)O [Example 73, (3R,4S)-3-amino-4-(3-boronopropyl)-1-(N-(cyclopropylmethyl)-N-((R)-piperidin-3-yl)sulfamoyl)pyrrolidine-3-carboxylic acid, 2,2,2-trifluoroacetic acid salt (1:2)]
IC50 [2]: < 100 nM

N[C@@]1(C(=O)O)CN(S(=O)(=O)N(CC2CC2)C2CCNCC2)C[C@@H]1CCCB(O)O [Example 74, (3R,4S)-3-amino-4-(3-boronopropyl)-1-(N-(cyclopropylmethyl)-N-(piperidin-4-yl)sulfamoyl)pyrrolidine-3-carboxylic acid, 2,2,2-trifluoroacetic acid salt (1:2)]
IC50 [2]: < 100 nM

CCN(C1CNC1)S(=O)(=O)N1C[C@H](CCCB2O[C@H]3C[C@H]4C[C@H](C4(C)C)[C@@]3(C)O2)[C@](N)(C(=O)O)C1 [Example 75, (3R,4S)-3-amino-1-(N-(azetidin-3-yl)-N-ethylsulfamoyl)-4-(3-((3aR,4R,6R,7aS)-3a,5,5-trimethylhexahydro-4,6-methanobenzo[d][1,3,2]dioxaborol-2-yl)propyl)pyrrolidine-3-carboxylic acid]
IC50 [2]: < 100 nM

(rac)trans-3-amino-1-(N-((S)-2-aminopropyl)sulfamoyl)-4-(3-boronopropyl)pyrrolidine-3-carboxylic acid (diastereomers), 2,2,2-trifluoroacetic acid salt (1:2) [Example 18]
IC50 ([2]; read-out: Arg 1 enzymatic potency, recombinant human arginase 1, 37° C. for 120 min, urea detection): 100 to 1000 nM

Reference: patent US20220251116A1, “ALKYLBORONIC ACIDS AS ARGINASE INHIBITORS” (Guangdong Newopp Biopharmaceuticals Co., Ltd., priority 2019, published 2022)
